# Laboratory results published in a melting point compilation (Tetko et al.; mined from patent text by program, amines drawn as free bases though some values may be those of a salt).
row,Structure (SMILES),melting point [°C]
1,Cc1c2ccncc2c(C)c2c1[nH]c1ccc(O)cc12,307 to 309
2,Nc1cc(N2C(=O)C3=C(CCCC3)C2=O)c(F)cc1Cl,164 to 165
3,Cn1c(COc2ccc(CC3SC(=O)NC3=O)cc2)nc2ccc(Oc3ccc4cccc(NC(=O)Nc5ccc(F)cc5F)c4c3)cc21 (stereo not given),222 to 224
4,CC(C)C1C(=O)C(C)(C)C(=O)N1c1ccc(C#N)c(Cl)c1 (stereo not given),116 to 117
5,Cc1cccc(N2CCC(N)=N2)c1,119 to 120
6,Cc1cc(C(=O)NCO)ncc1C(c1c(F)ccc(F)c1F)S(=O)(=O)c1ccc(F)c(F)c1 (stereo not given),119 to 120
7,COc1ccc2c(=O)c(S(C)(=O)=O)cn(C)c2c1,212 to 214
8,O=C1CCC(Nc2ccc3[nH]c(=O)c(C(=O)O)cc3c2)N1 (stereo not given),> 300
9,C[C@@H]1N=C(c2ccccc2Cl)c2cc(N)ccc2N(C)C1=O,221
10,CCCCC(=O)c1ccc(OCC(=O)O)c(Cl)c1Cl,110 to 113
11,CCCCCCCCCCCCCCCCCCOc1cc(OCc2ccc3ccccc3n2)cc(N(CC(=O)O)CC(=O)O)c1,172 to 174
12,Cn1ncc2c1-c1c(Oc3ccc(OCc4ccc5ccccc5n4)cc3)sc(C(N)=O)c1CC2,139 to 140
13,CCc1nc2c(-c3cc4c(c(Br)c3C)OCC4)ncnc2n1C(C1CC1)C1CC1,179 to 180
14,c1ccc(C2=NC(c3ccccn3)(c3ccccn3)N=C2c2ccccc2)cc1,214 to 216
15,Cc1cn(-c2nc(C)cc3[nH]c(=O)ccc23)cn1,307 to 308
16,COC(=O)c1c(Cl)cc(C)nc1Oc1c(C)cc(C)cc1C,127 to 128
17,COc1ccc(C2=C(C#N)C(c3cccc4nsnc34)c3c[nH]nc3N2)cc1 (stereo not given),238
18,COCc1nc2c3c(ccn2c1C)C(=O)[C@H](O)[C@@H](c1ccccc1)N3,168 to 173
19,COC(=O)[C@@H](NC(=O)OC(C)(C)C)[C@@H](S)c1ccccc1,76 to 77
20,COC(=O)CCc1ccc(-n2cc(C)n(-c3ccc(C(=N)N)cc3)c2=O)cc1,95 to 100
21,O=C1c2ccccc2C(O)N1CCCSc1ccncc1 (stereo not given),132 to 134
22,CCOC(=O)c1[nH]c2cc(Cl)cc(Cl)c2c1NCCC(=O)c1ccccc1,195 to 197
23,CC(=O)NC(CC(C)C)C(=O)N1CC1C#N (racemic),112 to 116
24,COC(=O)C(CS)NC(=O)CNC(=O)CS (stereo not given),67 to 69
25,Cc1ccccc1C=CC(=O)C=Cc1ccccc1C,94 to 96

row,Structure (SMILES),melting point [°C]
1,COc1ccc(OC)c(-c2nc3ncccc3[nH]2)c1,235
2,N#CCCCNC(=O)c1n[nH]cc1NC(=O)c1ccccn1,231 to 233
3,COc1ccc(CC(=O)NC(NC(=NC#N)Nc2cccnc2OC)C(C)(Cl)Cl)cc1OC (stereo not given),188 to 190
4,CC12CCC(OS(=O)(=O)C(F)(F)F)=CC1=CCC1C2CCC2(C)C(C(=O)N(C(=S)NC3CCCCC3)C3CCCCC3)CCC12 (stereo not given),123 to 124
5,O=c1ccc2cc([N+](=O)[O-])cc(-c3cccc4ccccc34)c2[nH]1,234 to 235
6,CCOC(=O)C(C#N)=Cc1ccc(NC(C)=O)cc1,187
7,O=C(c1cccs1)c1cnn2c(-c3cccc(-c4ccc(CNCCN5CCOCC5)cc4)c3)ccnc12,100 to 106
8,CC1=C(/C=C/S(=O)(=O)NC(C)C)C(c2cc([N+](=O)[O-])ccc2Cl)C(C(=O)OC(C)C)=C(C)N1 (stereo not given),199 to 201
9,NC(CO)(CCCc1ccc(Sc2cccc(OCc3ccccc3)c2)cc1Cl)CCP(=O)(O)O (stereo not given),193 to 196
10,COc1ccc(C(=O)C#CCO)c(OC)c1OC,82 to 83
11,CCOc1nc(NCc2ccco2)nc(N2CCN(Cc3ccccn3)CC2)n1,115 to 117
12,CC1(C)CS(=O)(=O)CC(C)(C)N1Cl,163
13,Nc1nc(CN2CCCN(C(c3ccccc3)c3ccccc3)CC2)cs1,152 to 156
14,COC(=O)c1ccc2c(c1)NC(=O)c1cccnc1N2,344 to 349
15,CCOC(=O)C1=C(O)C(C)(CC)CNC1=O (stereo not given),196 to 197
16,CCN1c2ncc(CSc3ccncc3)cc2C(=O)N(C)c2ccc(Cl)nc21,140 to 142
17,c1ccc2c(c1)CSCCCN2,77 to 79
18,O=C(NCC1Cc2ccccc2C1)OCc1ccccc1,87 to 89
19,C1=C(c2c[nH]c3ccccc23)CCNC1,185 to 186
20,c1coc(CNc2nccc3ccccc23)c1,76 to 77
21,CCc1c(C(=O)OC(C)C)ncc2[nH]c3ccc4ncc(C)nc4c3c12,215 to 216
22,Nc1c(-c2ccc(-c3cccnc3)cc2)nc2ccc(F)cc2c1C(=O)O,260 to 268
23,COC(=O)c1ncn(CCCc2ccc(OCc3coc(/C=C/c4ccccc4)n3)cc2)c1C(=O)OC,85 to 86
24,N#Cc1cnn(-c2ccc(C=O)cc2)n1,148 to 150
25,O=C(Nc1ccc(-n2nc(C3CC3)cc2C2CC2)cc1)c1c(F)cccc1F,158 to 163
